Source: patent US7803930B2, “Antisense modulation of apolipoprotein B-expression” (Isis Pharmaceuticals, Inc., priority 2002, dated 2010)
In the oligonucleotide strings, read from the 5' end, every base follows the letter of its sugar. An asterisk marks phosphorothioate; unmarked linkages are phosphodiester. Other units and linkages are bracketed, terminal groups are in braces. A string of capitals states the bases alone. e = 2'-O-(2-methoxyethyl) (MOE); [5mC] = 5-methylcytosine; d = 2'-deoxy (DNA)

Test system: human apolipoprotein B mRNA
Assay: Inhibition of human apolipoprotein B mRNA levels in HepG2 cells, quantitative real-time PCR
Format: cell-based
Details: for % INHIB / % INHIB 50 nm / % INHIB 150 nm / % inhibition of apolipoprotein B mRNA levels: HepG2 cells; for % INHIB (inhibition of human apolipoprotein B mRNA levels): HepG2 cells treated with 150 nM of compound, quantitative real-time PCR; for % inhibition of apolipoprotein B mRNA levels: normalized to untreated control, average of two experiments
Outline: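 HepG2 cells at 80% confluency were transfected with antisense oligonucleotide using 3.75 μg/mL Lipofectin in Opti-MEM for 4-7 h and harvested 16-24 h after treatment. Apolipoprotein B mRNA was measured by real-time RT-PCR and normalized to GAPDH or RiboGreen total RNA. Percent inhibition came from untreated-control standard curves.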

[1] = human apolipoprotein B mRNA, oligonucleotides targeting genomic sequence SEQ ID NO 334, averages from two experiments
[2] = Table 13 gene walk, 50 nM, averages from two experiments
[3] = Table 13 gene walk, 150 nM, averages from two experiments
[4] = Table 1, 150 nM, averages from two experiments
[5] = 50 nm oligonucleotide, variable deoxy gap position
[6] = 150 nm oligonucleotide, variable deoxy gap position
[7] = Table 11 gene walk, 50 nM, averages from two experiments
[8] = Table 11 gene walk, 150 nM, averages from two experiments

Substance | % INHIB [1] | % INHIB (inhibition of human apolipoprotein B mRNA levels) (averages from two experiments) | also measured
301144 (eG*e[5mC]*eA*eA*eA*dG*dG*dT*dA*dG*dA*dG*dG*dA*dA*eG*eG*eT*eA*eT; antisense) [compound 301144] | 32% | – | –
301146 (e[5mC]*eA*eT*eA*eG*dG*dA*dG*dT*dA*d[5mC]*dA*dT*dT*dT*eA*eT*eA*eT*eA; antisense) [compound 301146] | 23% | – | –
281587 (eA*eT*eG*eT*eG*dT*dA*d[5mC]*dT*dT*d[5mC]*d[5mC]*dG*dG*dA*eG*eG*eT*eG*e[5mC]; antisense) [compound 281587] | – | 77% | –
281596 (eT*eG*eA*e[5mC]*eT*dG*d[5mC]*dT*dT*d[5mC]*dA*dT*d[5mC]*dA*d[5mC]*eT*eG*eA*eG*eG; antisense) [compound 281596] | – | 77% | –
271015 (antisense eT*eG*eT*eG*eT*dT*d[5mC]*d[5mC]*d[5mC]*dT*dG*dA*dA*dG*d[5mC]*eG*eG*e[5mC]*e[5mC]*eA) [compound 271015] | – | 43% | –
281631 (antisense eT*e[5mC]*eA*eA*e[5mC]*dG*dG*d[5mC]*dA*dT*d[5mC]*dT*d[5mC]*dT*d[5mC]*eA*eT*e[5mC]*eT*e[5mC]) [compound 281631] | – | 88% | –
301125 (eA*eG*eG*eG*eA*dT*dG*dG*dT*d[5mC]*dA*dA*dT*d[5mC]*dT*eG*eG*eT*eA*eG; antisense) [compound 301125] | 57% | – | –
308628 (e[5mC]*e[5mC]*eT*e[5mC]*eA*dG*dT*d[5mC]*dT*dG*d[5mC]*dT*dT*d[5mC]*dG*e[5mC]*eG*e[5mC]*e[5mC]*eT; antisense) [compound 308628] | – | – | % INHIB 50 nm [2]: 61%; % INHIB 150 nm [3]: 92%
301040 (eG*e[5mC]*e[5mC]*e[5mC]*eT*dG*dG*dT*dG*d[5mC]*d[5mC]*dA*dG*d[5mC]*dT*eT*eT*eG*eG*eT; antisense) [compound 301040] | – | 74% | –
308627 (eT*e[5mC]*eA*eG*eT*d[5mC]*dT*dG*d[5mC]*dT*dT*d[5mC]*dG*d[5mC]*dG*e[5mC]*e[5mC]*eT*eT*e[5mC]; antisense) [compound 308627] | – | – | % INHIB 50 nm [2]: 67%; % INHIB 150 nm [3]: 89%
147833 (antisense eA*eT*eG*eA*eT*dA*d[5mC]*dA*d[5mC]*dA*dA*dT*dA*dA*dA*eG*eA*e[5mC]*eT*e[5mC]) [compound 147833] | – | – | % INHIB [4]: 25%
301147 (eA*eT*eT*eA*eT*dG*dA*dT*dA*dA*dA*dA*dT*d[5mC]*dA*eA*eT*eT*eT*eT; antisense) [compound 301147] | 19% | – | –
301226 (antisense e[5mC]*eT*eT*eA*eA*dA*dT*d[5mC]*dA*d[5mC]*dA*d[5mC]*dT*dA*dT*eG*eT*eG*eT*eT) [compound 301226] | – | – | % INHIB (Table 15, 150 nM, averages from two experiments): 39%
301055 (eT*eG*eG*e[5mC]*eT*d[5mC]*dA*dT*dG*dT*d[5mC]*dT*dA*d[5mC]*d[5mC]*eA*eT*eA*eT*eT; antisense) [compound 301055] | 49% | – | –
301120 (antisense eT*eA*eG*eG*e[5mC]*dA*dA*dA*dG*dG*dA*d[5mC]*dA*dT*dG*eA*eA*eT*eA*eG) [compound 301120] | 30% | – | –
281647 (eT*eG*eA*eG*eT*dG*dA*dG*dT*d[5mC]*dA*dA*dT*d[5mC]*dA*eG*e[5mC]*eT*eT*e[5mC]) [compound 281647] | – | – | % INHIB (Table 12, 150 nM, averages from two experiments): 73%
308640 (AGGTTACCAGCCACATGCAG; 2-10-8 MOE gapmer, phosphorothioate, chemistry not fully specified) [compound 308640] | – | – | % INHIB 50 nm [5]: 76%; % INHIB 150 nm [6]: 96%
281590 (e[5mC]*eT*eG*e[5mC]*eT*dT*d[5mC]*d[5mC]*d[5mC]*dT*dT*d[5mC]*dT*dG*dG*eA*eA*eT*eG*eG; antisense) [compound 281590] | – | 84% | –
301207 (antisense eT*eT*e[5mC]*e[5mC]*e[5mC]*dA*dT*dT*d[5mC]*d[5mC]*d[5mC]*dT*dG*dA*dA*eA*eG*e[5mC]*eA*eG) [compound 301207] | 13% | – | –
301182 (antisense e[5mC]*e[5mC]*eA*eA*e[5mC]*dT*d[5mC]*d[5mC]*d[5mC]*d[5mC]*d[5mC]*dT*dT*dT*d[5mC]*eT*eT*eT*eG*eT) [compound 301182] | 37% | – | –
301195 (antisense eG*eA*eA*eT*eT*dG*dA*dG*dA*d[5mC]*dA*dA*d[5mC]*dT*dT*eG*eA*eT*eT*eT) [compound 301195] | 26% | – | –

Substance | % INHIB [1] | % INHIB (inhibition of human apolipoprotein B mRNA levels) (averages from two experiments) | also measured
301091 (antisense eG*eA*eG*eA*eT*dT*dG*dG*dA*dG*dA*d[5mC]*dG*dA*dG*e[5mC]*eA*eT*eT*eT) [compound 301091] | 35% | – | –
301108 (antisense e[5mC]*eA*eT*eT*eA*dG*dA*dT*dA*d[5mC]*d[5mC]*dT*dG*dG*dA*e[5mC]*eA*e[5mC]*e[5mC]*eT) [compound 301108] | 29% | – | –
301033 (eA*e[5mC]*eT*eG*e[5mC]*d[5mC]*dT*dA*d[5mC]*dT*dG*d[5mC]*dA*dA*dG*eG*e[5mC]*eT*eG*eG; antisense) [compound 301033] | – | 77% | –
301139 (eT*e[5mC]*eA*eA*eG*dA*dA*dT*dA*dA*dG*d[5mC]*dT*d[5mC]*d[5mC]*eA*eG*eA*eT*e[5mC]; antisense) [compound 301139] | 41% | – | –
281626 (antisense eA*eT*eG*eT*eG*d[5mC]*dA*dT*d[5mC]*dG*dA*dT*dG*dG*dT*e[5mC]*eA*eT*eG*eG) [compound 281626] | – | 88% | –
308605 (eG*eA*eA*eT*eG*dT*d[5mC]*dA*dT*dG*dG*dT*dA*dG*d[5mC]*e[5mC]*eT*e[5mC]*eA*eG; antisense) [compound 308605] | – | – | % INHIB 50 nm [7]: 50%; % INHIB 150 nm [8]: 81%
301150 (eG*eA*eA*eA*eG*dG*dA*dA*dG*dG*dA*d[5mC]*dT*dA*dG*e[5mC]*eA*eT*eA*eT; antisense) [compound 301150] | 39% | – | –
281598 (eT*e[5mC]*eG*e[5mC]*eA*dG*d[5mC]*dT*dG*d[5mC]*dT*dG*dT*dG*d[5mC]*eT*eG*eA*eG*eG; antisense) [compound 281598] | – | 70% | –
301159 (eT*eG*e[5mC]*eT*eT*dT*dA*d[5mC]*d[5mC]*dT*dA*d[5mC]*d[5mC]*dT*dA*eG*e[5mC]*eT*eA*e[5mC]; antisense) [compound 301159] | 36% | – | –
270989 (antisense e[5mC]*e[5mC]*eA*eG*e[5mC]*dT*dT*dG*dA*dG*d[5mC]*dT*d[5mC]*dA*dT*eA*e[5mC]*e[5mC]*eT*eG) [compound 270989] | – | 64% | –
271002 (antisense eA*eA*eT*e[5mC]*eT*d[5mC]*dG*dA*dT*dG*dA*dG*dG*dT*d[5mC]*eA*eG*e[5mC]*eT*eG) [compound 271002] | – | 48% | –
271030 (e[5mC]*eA*eG*eT*eT*dA*dG*dA*dA*d[5mC]*dA*d[5mC]*dT*dG*dT*eG*eG*e[5mC]*e[5mC]*e[5mC]; antisense) [compound 271030] | – | 52% | –
147815 (antisense eT*eG*eG*e[5mC]*e[5mC]*dT*dA*d[5mC]*d[5mC]*dA*dG*dA*dG*dA*d[5mC]*eA*eG*eG*eT*eA) [compound 147815] | – | – | % INHIB [4]: 45%
271026 (eG*eA*e[5mC]*eT*e[5mC]*d[5mC]*dT*dT*d[5mC]*dA*dG*dA*dG*d[5mC]*d[5mC]*eA*eG*e[5mC]*eG*eG; antisense) [compound 271026] | – | 39% | –
308602 (antisense e[5mC]*eA*eT*eG*eG*dT*dA*dG*d[5mC]*d[5mC]*dT*d[5mC]*dA*dG*dT*e[5mC]*eT*eG*e[5mC]*eT) [compound 308602] | – | – | % INHIB 50 nm [7]: 83%; % INHIB 150 nm [8]: 92%
147825 (antisense eA*eG*eA*eA*eG*d[5mC]*dT*dG*d[5mC]*d[5mC]*dT*d[5mC]*dT*dT*d[5mC]*eT*eT*e[5mC]*e[5mC]*e[5mC]) [compound 147825] | – | – | % INHIB [4]: 72%
301041 (eG*eA*eG*eT*eT*d[5mC]*dA*dG*dA*dG*dA*d[5mC]*d[5mC]*dT*dT*e[5mC]*e[5mC]*eG*eA*eG; antisense) [compound 301041] | – | 85% | –
308632 (GCCTCAGTCTGCTTCGCACC; 0-10-10 MOE gapmer, phosphorothioate, chemistry not fully specified) [compound 308632] | – | – | % INHIB 50 nm [5]: 41%; % INHIB 150 nm [6]: 97%
301074 (eG*eA*eG*e[5mC]*eT*d[5mC]*dA*dT*dA*d[5mC]*d[5mC]*dT*dG*dT*d[5mC]*e[5mC]*e[5mC]*eA*eG*eA; antisense) [compound 301074] | 75% | – | –
308638 (GCCTCAGTCTGCTTCGCACC; 1-10-9 MOE gapmer, phosphorothioate, chemistry not fully specified) [compound 308638] | – | – | % inhibition of apolipoprotein B mRNA levels (12.5 nM oligonucleotide): 42%; % inhibition of apolipoprotein B mRNA levels (37 nM oligonucleotide): 73%; % inhibition of apolipoprotein B mRNA levels (75 nM oligonucleotide): 91%; % inhibition of apolipoprotein B mRNA levels (150 nM oligonucleotide): 96%; % inhibition of apolipoprotein B mRNA levels (300 nM oligonucleotide): 97%; % INHIB 50 nm [5]: 91%; % INHIB 150 nm [6]: 94%
